Experimental data taken from patent US6914045B2, “Glycopeptide antibiotics” (Wyeth Holdings Corporation, priority 2001, dated 2005).
Values after ≈ are worked out from the molar mass of the structure shown.

Columns and labels:
[1] = test system: Staphylococcus sp.; assay: in vitro antibacterial evaluation, MIC by broth dilution; type: cell-based; settings: broth dilution, 18 hours at 35° C.
In short: (§1)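 Test organisms, which included recent clinical isolates resistant to methicillin, penicillin and/or vancomycin, were inoculated at 5×10^5 CFU/mL into Muller-Hinton II […] containing antibiotic at 64-0.06 μg/mL. Minimum inhibitory concentrations were then read as the lowest level inhibiting growth.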

[2] = test system: Streptococcus sp.; assay: as above; type: cell-based; settings: broth dilution, 18 hours at 35° C.
In short: as §1

[3] = test system: Enterococcus sp.; assay: as above; type: cell-based; settings: broth dilution, 18 hours at 35° C.
In short: as §1

[4] = test system: Escherichia coli; assay: as above; type: cell-based; settings: 18 hours at 35° C.
In short: as §1

[5] = test system: Enterococcus faecalis (GC 6189); assay: acute lethal infection in mice; type: in vivo; settings: female CD-1 mice, intraperitoneal challenge, intravenous 30 min. after infection, 7 day survival
In short: (§2)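 Survival at 7 days, pooled from three independent tests, yields ED50 values. Treatment is intravenous, 30 min after ip infection of female CD-1 mice, using an inoculum lethal to untreated controls within 24-48 hr.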

[6] = test system: Staphylococcus aureus-SMITH (GC 4543); assay: acute lethal infection in mice; type: in vivo; settings: acute lethal infection, female CD-1 mice, intraperitoneal challenge, intravenous 30 min. after infection, 7 day survival
In short: as §2

## CC(c1ccccc1)C1NC(=O)CNC(=O)C(CO)NC(=O)C(C(O)C2CNC(=N)N2C2OC(CO)C(O)C(O)C2O)NC(=O)C(C(O)C2CNC(=N)N2)NC(=O)C(Cc2ccc(OC3OC(CO)C(OC4OC5COC(Cc6ccc(F)cc6)OC5C(O)C4O)C(O)C3O)cc2)NC1=O (stereo not drawn) [Example 121, Cyclo[glycyl-β-methylphenylalanyl-O-[4-O-[4,6-O-(4-fluorophenethylidene)hexopyranosyl]-hexopyranosyl]tyrosyl-3-(2-iminoimidazolidin-4-yl)seryl-3-(3-hexopyranosyl-2-iminoimidazolidin-4-yl)serylseryl]]
[1]
  MIC Coagulase Negative Staphylococcus (GC 4547): 1 µg/mL (≈ 0.707 µM)
  MIC Coagulase Negative Staphylococcus (GC 4548): 0.5 µg/mL (≈ 0.353 µM)
  MIC Coagulase Negative Staphylococcus (GC 4549): 0.5 µg/mL (≈ 0.353 µM)
  MIC Coagulase Negative Staphylococcus (GC 4551): 2 µg/mL (≈ 1.41 µM)
  MIC Coagulase Negative Staphylococcus (GC 6257): 1 µg/mL (≈ 0.707 µM)
  MIC Staphylococcus aureus (ATCC 29213): 1 µg/mL (≈ 0.707 µM)
  MIC Staphylococcus aureus (GC 1131): 2 µg/mL (≈ 1.41 µM)
  MIC Staphylococcus aureus (GC 3051): 1 µg/mL (≈ 0.707 µM)
  MIC Staphylococcus aureus (GC 3053): 1 µg/mL (≈ 0.707 µM)
  MIC Staphylococcus aureus (GC 4541): 1 µg/mL (≈ 0.707 µM)
  MIC Staphylococcus aureus (GC 4542): 1 µg/mL (≈ 0.707 µM)
  MIC Staphylococcus aureus (GC 4544): 2 µg/mL (≈ 1.41 µM)
  MIC Staphylococcus aureus (GC 4545): 2 µg/mL (≈ 1.41 µM)
  MIC Staphylococcus aureus-SMITH (GC 4543): 1 µg/mL (≈ 0.707 µM)
  MIC Staphylococcus haemolyticus (GC 4546): 1 µg/mL (≈ 0.707 µM)
[1]; inoculum 5×10^5 CFU/mL, strain GC 1131
  MIC Staphylococcus aureus (GC 1131): 2 µg/mL (≈ 1.41 µM)
[1]; strain ATCC 29213
  MIC Staphylococcus aureus (ATCC 29213): 1 µg/mL (≈ 0.707 µM)
[1]; strain GC 3051
  MIC Staphylococcus aureus (GC 3051): 1 µg/mL (≈ 0.707 µM)
[1]; strain GC 3053
  MIC Staphylococcus aureus (GC 3053): 1 µg/mL (≈ 0.707 µM)
[1]; strain GC 4541
  MIC Staphylococcus aureus (GC 4541): 1 µg/mL (≈ 0.707 µM)
[1]; strain GC 4542
  MIC Staphylococcus aureus (GC 4542): 1 µg/mL (≈ 0.707 µM)
[1]; strain GC 4544
  MIC Staphylococcus aureus (GC 4544): 2 µg/mL (≈ 1.41 µM)
[1]; strain GC 4545
  MIC Staphylococcus aureus (GC 4545): 2 µg/mL (≈ 1.41 µM)
[1]; strain GC 4546
  MIC Staphylococcus haemolyticus (GC 4546): 1 µg/mL (≈ 0.707 µM)
[1]; strain GC 4547
  MIC Coagulase Negative Staphylococcus (GC 4547): 1 µg/mL (≈ 0.707 µM)
[1]; strain GC 4548
  MIC Coagulase Negative Staphylococcus (GC 4548): 0.5 µg/mL (≈ 0.353 µM)
[1]; strain GC 4549
  MIC Coagulase Negative Staphylococcus (GC 4549): 0.5 µg/mL (≈ 0.353 µM)
[1]; strain GC 4551
  MIC Coagulase Negative Staphylococcus (GC 4551): 2 µg/mL (≈ 1.41 µM)
[1]; strain GC 6257
  MIC Coagulase Negative Staphylococcus (GC 6257): 1 µg/mL (≈ 0.707 µM)
[1]; strain SMITH GC 4543
  MIC Staphylococcus aureus-SMITH (GC 4543): 1 µg/mL (≈ 0.707 µM)
[2]; Streptococcus agalactiae (GC 4564)
  MIC Streptococcus agalactiae (GC 4564): 0.25 µg/mL (≈ 0.177 µM)
[2]; Streptococcus pneumoniae (ATCC 6301)
  MIC Streptococcus pneumoniae (ATCC 6301): <0.06 µg/mL
[2]; Streptococcus pneumoniae (GC 1894)
  MIC Streptococcus pneumoniae (GC 1894): <0.06 µg/mL
[2]; Streptococcus pneumoniae (GC 4565)
  MIC Streptococcus pneumoniae (GC 4565): <0.06 µg/mL
[2]; Streptococcus pyogenes (GC 4563)
  MIC Streptococcus pyogenes (GC 4563): 0.25 µg/mL (≈ 0.177 µM)
[2]; strain ATCC 6301
  MIC Streptococcus pneumoniae (ATCC 6301): <0.06 µg/mL
[2]; strain GC 1894
  MIC Streptococcus pneumoniae (GC 1894): <0.06 µg/mL
[2]; strain GC 4563
  MIC Streptococcus pyogenes (GC 4563): 0.25 µg/mL (≈ 0.177 µM)
[2]; strain GC 4564
  MIC Streptococcus agalactiae (GC 4564): 0.25 µg/mL (≈ 0.177 µM)
[2]; strain GC 4565
  MIC Streptococcus pneumoniae (GC 4565): <0.06 µg/mL
[3]; Enterococcus avium (GC 4558)
  MIC Enterococcus avium (GC 4558): 4 µg/mL (≈ 2.83 µM)
[3]; Enterococcus faecalis (ATCC 29212)
  MIC Enterococcus faecalis (ATCC 29212): 2 µg/mL (≈ 1.41 µM)
[3]; Enterococcus faecalis (GC 2242)
  MIC Enterococcus faecalis (GC 2242): 2 µg/mL (≈ 1.41 µM)
[3]; Enterococcus faecalis (GC 2691)
  MIC Enterococcus faecalis (GC 2691): 4 µg/mL (≈ 2.83 µM)
[3]; Enterococcus faecalis (GC 3059)
  MIC Enterococcus faecalis (GC 3059): 2 µg/mL (≈ 1.41 µM)
[3]; Enterococcus faecalis (GC 4552)
  MIC Enterococcus faecalis (GC 4552): 2 µg/mL (≈ 1.41 µM)
[3]; Enterococcus faecalis (GC 4553)
  MIC Enterococcus faecalis (GC 4553): 4 µg/mL (≈ 2.83 µM)
[3]; Enterococcus faecalis (GC 4554)
  MIC Enterococcus faecalis (GC 4554): 2 µg/mL (≈ 1.41 µM)
[3]; Enterococcus faecalis (GC 6189)
  MIC Enterococcus faecalis (GC 6189): 2 µg/mL (≈ 1.41 µM)
[3]; Enterococcus faecium (GC 2243)
  MIC Enterococcus faecium (GC 2243): 2 µg/mL (≈ 1.41 µM)
[3]; Enterococcus faecium (GC 4556)
  MIC Enterococcus faecium (GC 4556): 2 µg/mL (≈ 1.41 µM)
[3]; Enterococcus faecium (GC 4557)
  MIC Enterococcus faecium (GC 4557): 2 µg/mL (≈ 1.41 µM)
[3]; strain ATCC 29212
  MIC Enterococcus faecalis (ATCC 29212): 2 µg/mL (≈ 1.41 µM)
[3]; strain GC 2242
  MIC Enterococcus faecalis (GC 2242): 2 µg/mL (≈ 1.41 µM)
[3]; strain GC 2243
  MIC Enterococcus faecium (GC 2243): 2 µg/mL (≈ 1.41 µM)
[3]; strain GC 2691
  MIC Enterococcus faecalis (GC 2691): 4 µg/mL (≈ 2.83 µM)
[3]; strain GC 3059
  MIC Enterococcus faecalis (GC 3059): 2 µg/mL (≈ 1.41 µM)
[3]; strain GC 4552
  MIC Enterococcus faecalis (GC 4552): 2 µg/mL (≈ 1.41 µM)
[3]; strain GC 4553
  MIC Enterococcus faecalis (GC 4553): 4 µg/mL (≈ 2.83 µM)
[3]; strain GC 4554
  MIC Enterococcus faecalis (GC 4554): 2 µg/mL (≈ 1.41 µM)
[3]; strain GC 4556
  MIC Enterococcus faecium (GC 4556): 2 µg/mL (≈ 1.41 µM)
[3]; strain GC 4557
  MIC Enterococcus faecium (GC 4557): 2 µg/mL (≈ 1.41 µM)
[3]; strain GC 4558
  MIC Enterococcus avium (GC 4558): 4 µg/mL (≈ 2.83 µM)
[3]; strain GC 6189
  MIC Enterococcus faecalis (GC 6189): 2 µg/mL (≈ 1.41 µM)
[4]; strain ATCC 25922
  MIC Escherichia coli (ATCC 25922): 32 µg/mL (≈ 22.6 µM)
[4]; strain GC 4559
  MIC Escherichia coli (GC 4559): 32 µg/mL (≈ 22.6 µM)
[4]; strain GC 4560
  MIC Escherichia coli (GC 4560): 1 µg/mL (≈ 0.707 µM)
[5]
  median effective dose (ED50), Enterococcus faecalis (GC 6189): 0.5 mg/kg
[6]
  median effective dose (ED50), Staphylococcus aureus-SMITH (GC 4543): 0.32 mg/kg
